Here are results for 22 compounds from patent US20230107642A1 (Erasca, Inc., priority 2020, published 2023).

Each structure is given as a SMILES string.

For the test, the target named is T1, K-Ras G12C (Homo sapiens, UniProt P01116, G12C).
T1 construct: This protein contained 188 amino acids in total, including an N-terminal 6-Histidine tag; made in house; host or cells: E. coli BL21
The test is described as follows: CAF assay (% CAF; method in Example 7, not in this part). Type of test: binding. The note with it: 10 uM compound, 1 h incubation.
For `C=CC(=O)N1[C@H](C)CN(c2nc(=O)n3c4c(c(-c5ccc(F)cc5F)c(C(F)(F)F)cc24)SC[C@@H](OC)C3)C[C@@H]1C` [Example 503, (3S)-8-((3S,5R)-4-acryloyl-3,5-dimethylpiperazin-1-yl)-11-(2,4-difluorophenyl)-3-methoxy-10-(trifluoromethyl)-3,4-dihydro-2H,6H-[1,4]thiazepino[2,3,4-ij]quinazolin-6-one], the “% CAF @ 10 uM, 1h” value stood at 96%.

Take `C=CC(=O)N1CCN(c2nc(=O)n3c4c(c(-c5ccc(F)cc5F)c(Cl)cc24)SC[C@@H](OC)C3)CC1` [Example 504, (3S)-8-(4-acryloylpiperazin-1-yl)-10-chloro-11-(2,4-difluorophenyl)-3-methoxy-3,4-dihydro-2H,6H-[1,4]thiazepino[2,3,4-ij]quinazolin-6-one]: the “% CAF @ 10 uM, 1h” value stood at 96%.

As for `C=CC(=O)N1[C@H](C)CN(c2nc(=O)n3c4c(c(-c5ccc(F)cc5F)c(Cl)cc24)SC[C@@H](OC)C3)C[C@@H]1C` [Example 505, (3S)-8-((3S,5R)-4-acryloyl-3,5-dimethylpiperazin-1-yl)-10-chloro-11-(2,4-difluorophenyl)-3-methoxy-3,4-dihydro-2H,6H-[1,4]thiazepino[2,3,4-ij]quinazolin-6-one], the “% CAF @ 10 uM, 1h” value is reported as 95%.

For `C=CC(=O)N1[C@H](C)CN(c2nc(=O)n3c4c(c(-c5cc(F)c(F)cc5F)c(Cl)cc24)SC[C@@H]3COC)C[C@@H]1C` [Example 506, (3S)-7-((3S,5R)-4-acryloyl-3,5-dimethylpiperazin-1-yl)-9-chloro-3-(methoxymethyl)-10-(2,4,5-trif1uorophenyl)-2,3-dihydro-5H-[1,4]thiazino[2,3,4-ij]quinazolin-5-one], the “% CAF @ 10 uM, 1h” value worked out at 17.5%.

Consider `C=CC(=O)N1CCN(c2nc(=O)n3c4c(c(-c5ccc(F)cc5F)c(C(F)(F)F)cc24)S[C@H](COC)C3)[C@@H](C)C1` [Example 507, (2S)-7-((S)-4-acryloyl-2-methylpiperazin-1-yl)-10-(2,4-difluorophenyl)-2-(methoxymethyl)-9-(trifluoromethyl)-2,3-dihydro-5H-[1,4]thiazino[2,3,4-ij]quinazolin-5-one], for which the “% CAF @ 10 uM, 1h” value turned out to be 71%.

For `C=CC(=O)N1C[C@H](C)N(c2nc(=O)n3c4c(c(-c5ccc(F)cc5)c(C(F)(F)F)cc24)SC[C@@H]3COCCOC)C[C@H]1C` [Example 512, (S)-7-((2S,5R)-4-acryloyl-2,5-dimethylpiperazin-1-yl)-10-(4-fluorophenyl)-3-((2-methoxyethoxy)methyl)-9-(trifluoromethyl)-2H-[1,4]thiazino[2,3,4-ij]quinazolin-5(3H)-one], the “% CAF @ 10 uM, 1h” value is 66.1%.

As for `C=CC(=O)N1[C@H](C)CN(c2nc(=O)n3c4c(c(-c5ccc(F)cc5F)c(C(F)(F)F)cc24)SC[C@@H]3COC)C[C@@H]1C` [Example 513, (3S)-7-((3S,5R)-4-acryloyl-3,5-dimethylpiperazin-1-yl)-10-(2,4-difluorophenyl)-3-(methoxymethyl)-9-(trifluoromethyl)-2H-[1,4]thiazino[2,3,4-ij]quinazolin-5(3H)-one], the “% CAF @ 10 uM, 1h” value was 96.2%.

Take `C=CC(=O)N1CCN(c2nc(=O)n3c4c(c(-c5ccc(F)cc5F)c(C(F)(F)F)cc24)SC[C@@H]3COC)CC1` [Example 514, (3S)-7-(4-acryloylpiperazin-1-yl)-10-(2,4-difluorophenyl)-3-(methoxymethyl)-9-(trifluoromethyl)-2H-[1,4]thiazino[2,3,4-ij]quinazolin-5(3H)-one]: the “% CAF @ 10 uM, 1h” value was determined as 96.1%.

As for `C=CC(=O)N1C[C@H](C)N(c2nc(=O)n3c4c(c(-c5ccc(F)cc5)c(Cl)cc24)SC[C@@H]3CN2CCN(CC(F)F)CC2)C[C@H]1C` [Example 515, (S)-7-((2S,5R)-4-acryloyl-2,5-dimethylpiperazin-1-yl)-9-chloro-3-((4-(2,2-difluoroethyl)piperazin-1-yl)methyl)-10-(4-fluorophenyl)-2H-[1,4]thiazino[2,3,4-ij]quinazolin-5(3H)-one], the “% CAF @ 10 uM, 1h” value is recorded as 55.1%.

Regarding `C=CC(=O)N1CCN(c2nc(=O)n3c4c(c(-c5ccc(F)cc5)c(C(F)(F)F)cc24)SC[C@@H]3COCOC)[C@@H](C)C1` [Example 516, (S)-7-((S)-4-acryloyl-2-methylpiperazin-1-yl)-10-(4-fluorophenyl)-3-((methoxymethoxy)methyl)-9-(trifluoromethyl)-2H-[1,4]thiazino[2,3,4-ij]quinazolin-5(3H)-one], the “% CAF @ 10 uM, 1h” value is reported as 74.4%.

On to `C=CC(=O)N1C[C@H](C)N(c2nc(=O)n3c4c(c(-c5ccc(F)cc5)c(Cl)cc24)SC[C@@H]3CN2CCN(C3CC3)CC2)C[C@H]1C` [Example 517, (S)-7-((2S,5R)-4-acryloyl-2,5-dimethylpiperazin-1-yl)-9-chloro-3-((4-cyclopropylpiperazin-1-yl)methyl)-10-(4-fluorophenyl)-2H-[1,4]thiazino[2,3,4-ij]quinazolin-5(3H)-one], for which the “% CAF @ 10 uM, 1h” value was 59.5%.

As to `C=CC(=O)N1C[C@H](C)N(c2nc(=O)n3c4c(c(-c5ccc(F)cc5F)c(Cl)cc24)SC[C@@H]3CN2C[C@@H]3C[C@H]2CO3)C[C@H]1C` [Example 519, (3S)-3-((1S,4S)-2-oxa-5-azabicyclo[2.2.1]heptan-5-ylmethyl)-7-((2S,5R)-4-acryloyl-2,5-dimethylpiperazin-1-yl)-9-chloro-10-(2,4-difluorophenyl)-2H-[1,4]thiazino[2,3,4-ij]quinazolin-5(3H)-one], the “% CAF @ 10 uM, 1h” value was 61.3%.

Regarding `C=CC(=O)N1CCN(c2nc(=O)n3c4c(c(-c5cc(F)c(F)cc5F)c(Cl)cc24)SC[C@@H]3CN2CCN(C3CC3)CC2)[C@@H](C)C1` [Example 520, (3S)-7-((S)-4-acryloyl-2-methylpiperazin-1-yl)-9-chloro-3-((4-cyclopropylpiperazin-1-yl)methyl)-10-(2,4,5-trifluorophenyl)-2H-[1,4]thiazino[2,3,4-ij]quinazolin-5(3H)-one], the “% CAF @ 10 uM, 1h” value is on record as 51.1%.

As to `C=CC(=O)N1C[C@H](C)N(c2nc(=O)n3c4c(c(-c5cc(Cl)c(F)cc5F)c(C(F)(F)F)cc24)SC[C@@H]3CN2CCN(CC(F)F)CC2)C[C@H]1C` [Example 521, (3S)-7-((2S,5R)-4-acryloyl-2,5-dimethylpiperazin-1-yl)-10-(5-chloro-2,4-difluorophenyl)-3-((4-(2,2-difluoroethyl)piperazin-1-yl)methyl)-9-(trifluoromethyl)-2H-[1,4]thiazino[2,3,4-ij]quinazolin-5(3H)-one], the “% CAF @ 10 uM, 1h” value came to 40.6%.

On to `C=CC(=O)N1CCN(c2nc(=O)n3c4c(c(-c5cc(F)c(F)cc5F)c(C(F)(F)F)cc24)SC[C@@H]3COCOC)[C@@H](C)C1` [Example 522, (3S)-7-((S)-4-acryloyl-2-methylpiperazin-1-yl)-3-((methoxymethoxy)methyl)-9-(trifluoromethyl)-10-(2,4,5-trifluorophenyl)-2H-[1,4]thiazino[2,3,4-ij]quinazolin-5(3H)-one], for which the “% CAF @ 10 uM, 1h” value is 72.4%.

In the case of `C=CC(=O)N1C2CN(c3nc(=O)n4c5c(c(-c6ccc(F)cc6F)c(C(F)(F)F)cc35)SC[C@@H]4COC)CC1CC(F)(F)C2` [Example 523, (3S)-7-(9-acryloyl-7,7-difluoro-3,9-diazabicyclo[3.3.1]nonan-3-yl)-10-(2,4-difluorophenyl)-3-(methoxymethyl)-9-(trifluoromethyl)-2H-[1,4]thiazino[2,3,4-ij]quinazolin-5(3H)-one], the “% CAF @ 10 uM, 1h” value stood at 68.9%.

On to `C=CC(=O)N1[C@H](C)CN(c2nc(=O)n3c4c(c(-c5ccc(F)cc5F)c(C(F)(F)F)cc24)SC[C@H](OC)C3)C[C@@H]1C` [Example 524, (3R)-8-((3S,5R)-4-acryloyl-3,5-dimethylpiperazin-1-yl)-11-(2,4-difluorophenyl)-3-methoxy-10-(trifluoromethyl)-3,4-dihydro-2H,6H-[1,4]thiazepino[2,3,4-ij]quinazolin-6-one], for which the “% CAF @ 10 uM, 1h” value is 95%.

On to `C=CC(=O)N1CCN(c2nc(=O)n3c4c(c(-c5ccc(F)cc5F)c(Cl)cc24)SC[C@H](OC)C3)CC1` [Example 525, (3R)-8-(4-acryloylpiperazin-1-yl)-10-chloro-11-(2,4-difluorophenyl)-3-methoxy-3,4-dihydro-2H,6H-[1,4]thiazepino[2,3,4-ij]quinazolin-6-one], for which the “% CAF @ 10 uM, 1h” value was 86%.

For `C=CC(=O)N1[C@H](C)CN(c2nc(=O)n3c4c(c(-c5ccc(F)cc5F)c(Cl)cc24)SC[C@H](OC)C3)C[C@@H]1C` [Example 526, (3R)-8-((3S,5R)-4-acryloyl-3,5-dimethylpiperazin-1-yl)-10-chloro-11-(2,4-difluorophenyl)-3-methoxy-3,4-dihydro-2H,6H-[1,4]thiazepino[2,3,4-ij]quinazolin-6-one], the “% CAF @ 10 uM, 1h” value worked out at 93%.

Consider `C=CC(=O)N1CCN(c2nc(=O)n3c4c(c(-c5ccc(F)cc5)c(C(F)(F)F)cc24)SC[C@H](OC)C3)[C@@H](C)C1` [Example 527, (R)-8-((S)-4-acryloyl-2-methylpiperazin-1-yl)-11-(4-fluorophenyl)-3-methoxy-10-(trifluoromethyl)-3,4-dihydro-2H,6H-[1,4]thiazepino[2,3,4-ij]quinazolin-6-one], for which the “% CAF @ 10 uM, 1h” value was 97%.

Consider `C=CC(=O)N1CCN(c2nc(=O)n3c4c(c(-c5ccc(F)cc5)c(Cl)cc24)SC[C@H](OC)C3)[C@@H](C)C1` [Example 528, (R)-8-((S)-4-acryloyl-2-methylpiperazin-1-yl)-10-chloro-11-(4-fluorophenyl)-3-methoxy-3,4-dihydro-2H,6H-[1,4]thiazepino[2,3,4-ij]quinazolin-6-one], for which the “% CAF @ 10 uM, 1h” value is 98%.

For the compound `C=CC(=O)N1CCN(c2nc(=O)n3c4c(c(-c5cc(Cl)c(F)cc5F)c(Cl)cc24)SC[C@@H](OC)C3)[C@@H](C)C1` [Example 529, (3S)-8-((S)-4-acryloyl-2-methylpiperazin-1-yl)-10-chloro-11-(5-chloro-2,4-difluorophenyl)-3-methoxy-3,4-dihydro-2H,6H-[1,4]thiazepino[2,3,4-ij]quinazolin-6-one], the “% CAF @ 10 uM, 1h” value amounted to 95%.
